Compound `C[N+]12CCC(CC1)C(NC(=O)C1c3ccccc3Oc3ccccc31)C2.[Br-]` (stereo not shown) registered a melting point of 318 °C.

As to `CCCCC(C(=O)N[C@H]1CN2CCC1CC2)c1ccccc1` (stereo partly shown), the melting point turned out to be 136 °C.

Compound `O=C(NC1C[N+]2(CCCOc3ccccc3)CCC1CC2)C1(O)c2ccccc2-c2ccccc21.[Br-]` (stereo not shown) came in with a melting point of 264 °C.

In the case of `O=C(N[C@H]1CN2CCC1CC2)C(O)(c1ccccc1)C1CCCC1` (stereo partly shown), the melting point fell in the range of 69.8 to 73.3 °C.

`O=C(N[C@H]1CN2CCC1CC2)C(Cc1ccccc1)c1ccccc1` (stereo partly shown) showed a melting point of 142 °C.

`C[N+]12CCC(CC1)C(NC(=O)C1(O)c3ccccc3-c3ccccc31)C2.[Br-]` (stereo not shown) yielded a melting point of 197.5 to 203.6 °C.

`C=CCC(O)(C(=O)N[C@H]1CN2CCC1CC2)c1cccs1` (stereo partly shown) returned a melting point of 54.4 to 58.3 °C.

The term melting point denotes the temperature of the solid-liquid transition.

The values are drawn from patent publication US7718670B2 (dated 2010).
